Data: patent US8765422B2, “D4 desaturases and D5 elongases” (priority 2007, dated 2014)
Where “and” joins values, the source holds several entries; their conditions need not be identical. Equal entries are not always repeated.

Assays:
[1] = system: Δ5-elongase from Thraustochytrium ONC-T18; test: Δ5-elongase (clone pYElo) expressed in Saccharomyces cerevisiae INVSc1, fed free fatty acid substrate, percent conversion by FAME GC; format: cell-based, Thraustochytrium sp. ONC-T18; settings: pYElo in yeast
Procedure: The activity and specificity of the D4-desaturase and D5 elongase were determined using the yeast expression system. The transformed yeast was grown in SC-U medium containing 2% glucose, 1% Tergitol NP-40 for 48 hrs, 150 RPM at 30° C. A substrate medium was prepared containing SC-U, 2% galactose, 1% raffinose, 1% Tergitol NP-40 and 500 μM specific free fatty acid. The transformed yeast culture was inoculated into 100 ml substrate medium at an OD600 of 0.5 and cultures incubated at 20° C. for 5 days. The biomass was recovered by centrifugation at 2000 RPM for 5 min, washed once with 100 mM phosphate buffer (pH 7.0), then freeze dried. Fatty acid methyl ester gas chromatography was subsequently carried out to determine the efficiency of fatty acid desaturation and elongation. The percent conversion of the substrate was determined by calculating (product)/(substrate+product)*100. […]
The negative control strain was INVSc1 containing the unaltered pYES2 vector, and these were grown simultaneously. […] The FAMEs were resuspended in iso-octane and analysed by GC-FID. The percent conversion was calculated by dividing the product produced by the sum of (the product produced+the substrate added) and then multiplying by 100. […]

[2] = system: Δ4-desaturase from Thraustochytrium ONC-T18; test: Δ4-desaturase (clone pYDes) expressed in Saccharomyces cerevisiae INVSc1, fed free fatty acid substrate, percent conversion by FAME GC; format: cell-based, Thraustochytrium sp. ONC-T18; settings: for % conversion average, vector pYDes: pYDes in INVSc1, 500 μM substrate, GC-FID of FAMEs; for % conversion average, vector pYDes / % conversion With 0.01% ferric citrate: 96 hours at 20° C.; for increase With 0.01% ferric citrate: conversion with 0.01% ferric citrate versus without; for % conversion average (substrate to product) / % conversion With 0.01% ferric citrate: pYDes in yeast; for % conversion average (substrate to product): 500 μM free fatty acid substrate, 20° C., (product)/(substrate+product)*100; for % conversion With 0.01% ferric citrate: 500 μM substrate
Procedure: The activity and specificity of the D4-desaturase and D5 elongase were determined using the yeast expression system. The transformed yeast was grown in SC-U medium containing 2% glucose, 1% Tergitol NP-40 for 48 hrs, 150 RPM at 30° C. A substrate medium was prepared containing SC-U, 2% galactose, 1% raffinose, 1% Tergitol NP-40 and 500 μM specific free fatty acid. The transformed yeast culture was inoculated into 100 ml substrate medium at an OD600 of 0.5 and cultures incubated at 20° C. for 5 days. The biomass was recovered by centrifugation at 2000 RPM for 5 min, washed once with 100 mM phosphate buffer (pH 7.0), then freeze dried. Fatty acid methyl ester gas chromatography was subsequently carried out to determine the efficiency of fatty acid desaturation and elongation. The percent conversion of the substrate was determined by calculating (product)/(substrate+product)*100.
Clone pYDes, which consisted of the full length Δ4-desaturase cloned into pYES2 (Invitrogen, Carlsbad, Calif.), and clone pYElo, which consisted of the full-length Δ5-elongase gene in pYES2, were transformed into competent Saccharomyces cerevisiae INVSc1. Yeast transformation was carried out using the S. c. EasyComp Transformation kit (Invitrogen, Carlsbad, Calif.) according to conditions specified by the manufacturer. Transformants were selected for uracil auxotrophy on media lacking uracil (SC-Ura). To detect the specific desaturase activity of these clones, transformants were grown in the presence of 500 μM specific fatty acid substrates as listed below: A) Docosapentaenoic acid (22:5n-3) (conversion to docosahexaenoic acid would indicate Δ4-desaturase activity), B) Docosatetraenoic acid (22:4n-6) (conversion to docosapentaenoic acid (22:5n-6) would indicate Δ4-desaturase activity), C) Dihomo-gamma-linolenic acid (20:3n-6) (conversion to arachidonic acid (20:4n-6) would indicate Δ5-desaturase activity), D) Eicosapentaenoic acid (20:5n-3) (conversion to docosapentaenoic acid (22:5n-3) would indicate Δ5-elongase activity), E) Arachidonic acid (20:4n-6) (conversion to docosatetraenoic acid (22:4n-6) would indicate Δ5-elongase activity)
The negative control strain was INVSc1 containing the unaltered pYES2 vector, and these were grown simultaneously. The cultures were vigorously agitated (150 rpm) and grown for 96 hours at 20° C. in the presence of 500 μM (final concentration) of the various substrates. The cells were pelleted and washed in 100 mM phosphate buffer, pH 7.0, cell pellets were freeze dried. The lipids were then extracted and derivitized to fatty acid methyl esters (FAME) for gas chromatography analysis (GC). Transesterification and extraction was done using 100 mg freeze dried cells, with C19:0 as internal standard, added transesterification reaction mix (methanol: hydrochloric acid: chloroform, 10:1:1) mixed and heated at 90° C. for 2 hours, then allowed to cool at room temperature. FAMEs were extracted by adding 1 ml water, and 2 ml hexane: chloroform (4:1), and allow organic and aqueous phases to separate. The organic layer was extracted and treated with 0.5 g of anhydrous sodium sulfate to remove particulates and residual water. The organic solvents were evaporated under a stream of argon. The FAMEs were resuspended in iso-octane and analysed by GC-FID. The percent conversion was calculated by dividing the product produced by the sum of (the product produced+the substrate added) and then multiplying by 100.
Clone pYDes, which consisted of the full length Δ4-desaturase cloned into pYES2 (Invitrogen, Carlsbad, Calif.), was transformed into competent Saccharomyces cerevisiae INVSc1. The negative control strain was INVSc1 containing the unaltered pYES2 vector, and these were grown simultaneously.

SMILES	conversion of substrate by pYElo [1]	% conversion average, vector pYDes [2]	increase With 0.01% ferric citrate [2]	% conversion average (substrate to product) [2]	% conversion With 0.01% ferric citrate [2]	further results
CCCCC/C=C\C/C=C\C/C=C\C/C=C\CCCC(=O)O [ARA, Arachidonic acid (20:4n-6)]	minimal conversion	–	–	–	–	–
CCCCC/C=C\C/C=C\C/C=C\CCCCCCC(=O)O [DGLA, Dihomo-gamma-linolenic acid (20:3n-6)]	–	0.87%	–	–	–	–
CC/C=C\C/C=C\C/C=C\C/C=C\C/C=C\CCCCCC(=O)O [DPA, Docosapentaenoic acid (22:5n-3)]	–	14%	2.75 fold	14.04%	38.70%	% conversion average, vector pYDes ([2]; listed as C22:5 n-3): 14.04%; % conversion average (substrate to product) ([2]; listed as DPA n-3): 14%; DPA to DHA conversion on addition of ferric citrate to the media ([2]; pYDes, trace metal ferric citrate added): increase
CCCCC/C=C\C/C=C\C/C=C\C/C=C\CCCCCC(=O)O [DTA, Docosatetraenoic acid (22:4n-6)]	–	14%	2.43 fold	14% and 13.76%	33.43%	% conversion average, vector pYDes ([2]; listed as C22:4 n-6): 13.76%
CC/C=C\C/C=C\C/C=C\C/C=C\C/C=C\CCCC(=O)O [EPA, Eicosapentaenoic acid (20:5n-3)]	minimal conversion	–	–	–	–	–
